Patent US4952578A, “Cephem compound and a process for preparation thereof” (Fujisawa Pharmaceutical Co., Ltd., priority 1987, dated 1990)
Values after ≈ are worked out from the molar mass of the structure shown.

System: P. aeruginosa 26
Assay: In vitro antibacterial activity (MIC) by two-fold agar-plate dilution method
Assay type: cell-based
Conditions: Pseudomonas aeruginosa, HI-agar, 37° C., 20 hours, read-out: MIC (minimal inhibitory concentration)
Experimental: Now in order to show the utility of the object compound [I], the test data on MIC (minimal inhibitory concentration) of representative compound [I] of this invention is shown in the following.
In vitro antibacterial activity was determined by the two-fold agar-plate dilution method as described below.
One loopful of an overnight culture of each test strain in Trypticase-soy broth (10^8 viable cells per ml) was streaked on heart infusion agar (HI-agar) containing graded concentrations of representative test compound, and the minimal inhibitory concentration (MIC) was expressed in terms of μg/ml after incubation at 37° C. for 20 hours.

For `CO/N=C(\C(=O)N[C@@H]1C(=O)N2C(C(=O)[O-])=C(C[n+]3ccc(N)n3CCO)CS[C@H]12)c1csc(N)n1` [Test Compound (1), 7β-[2-(2-Aminothiazol-4-yl)-2-methoxyiminoacetamido]-3-[3-amino-2-(2-hydroxyethyl)-1-pyrazolio]methyl-3-cephem-4-carboxylate (syn isomer)], the MIC was 0.39 µg/mL (≈ 0.746 µM).
